One block for each compound: values may come before it.
Biological target: T1, His-hMAGL (recombinant polyhistidine tagged human MAGL protein) (Homo sapiens, UniProt Q99685)
T1 construct: made in house; host or cells: E. coli BL21(DE3)
T1 sequence (Q99685 1-303): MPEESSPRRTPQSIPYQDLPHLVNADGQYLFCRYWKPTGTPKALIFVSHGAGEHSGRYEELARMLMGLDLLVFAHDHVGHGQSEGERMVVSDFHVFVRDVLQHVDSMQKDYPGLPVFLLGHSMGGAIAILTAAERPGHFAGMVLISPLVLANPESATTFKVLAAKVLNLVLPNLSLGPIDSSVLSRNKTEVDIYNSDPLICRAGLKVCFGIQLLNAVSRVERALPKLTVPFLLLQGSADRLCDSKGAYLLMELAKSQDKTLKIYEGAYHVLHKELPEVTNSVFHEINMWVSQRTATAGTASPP
Test: Measurement of MAGL inhibitory activity (arachidonic acid production from 2-arachidonylglycerol, RapidFire-mass spectrometry)
Type: biochemical
Settings: MAGL inhibitory rate at 10 μM test compound, 60 min preincubation with His-hMAGL, 2-arachidonylglycerol substrate, 10 min reaction at room temperature
Method in brief: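 Recombinant His-tagged human MAGL converted 2-arachidonylglycerol to arachidonic acid. Reactions received acetonitrile with 3 μM arachidonic acid-d8 as internal standard, and product was quantified by RapidFire SPE (C4) with negative-mode SRM mass spectrometry. Percent inhibition was calculated against compound-free and enzyme-free controls.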

SMILES: O=C1COc2cc(F)c(C(=O)N3CC(COc4ccc5c(c4)CCO5)C3)cc2N1 [Example 155, 6-((3-((2,3-dihydro-1-benzofuran-5-yloxy)methyl)azetidin-1-yl)carbonyl)-7-fluoro-2H-1,4-benzoxazin-3(4H)-one]
inhibition at 10 µM: 101%

SMILES: O=C1COc2ccc(C(=O)N3CCC(F)(COc4ccc(F)cc4Cl)CC3)cc2N1 [Example 27, 6-((4-((2-chloro-4-fluorophenoxy)methyl)-4-fluoropiperidin-1-yl)carbonyl)-2H-1,4-benzoxazin-3(4H)-one]
inhibition at 10 µM: 101%

SMILES: N#Cc1ccc(OCC2CCN(C(=O)c3ccc4c(c3)NC(=O)CO4)CC2)cc1 [Example 49, 4-((1-((3-oxo-3,4-dihydro-2H-1,4-benzoxazin-6-yl)carbonyl)piperidin-4-yl)methoxy)benzonitrile]
inhibition at 10 µM: 92%

SMILES: O=C1COc2cc(F)c(C(=O)N3CC(COc4c(F)cccc4Cl)C3)cc2N1 [Example 136, 6-((3-((2-chloro-6-fluorophenoxy)methyl)azetidin-1-yl)carbonyl)-7-fluoro-2H-1,4-benzoxazin-3(4H)-one]
inhibition at 10 µM: 98%

SMILES: O=C1COc2cc(F)c(C(=O)N3CC(COc4cccc5nccnc45)C3)cc2N1 [Example 139, 7-fluoro-6-((3-((quinoxalin-5-yloxy)methyl)azetidin-1-yl)carbonyl)-2H-1,4-benzoxazin-3(4H)-one]
inhibition at 10 µM: 92%

SMILES: O=C1COc2ccc(C(=O)N3CCC(COc4ccc5[nH]ncc5c4)CC3)cc2N1 [Example 61, 6-((4-((1H-indazol-5-yloxy)methyl)piperidin-1-yl)carbonyl)-2H-1,4-benzoxazin-3(4H)-one]
inhibition at 10 µM: 94%

SMILES: Cc1ccc(OCC2CCN(C(=O)c3ccc4c(c3)NC(=O)CO4)CC2)c(Cl)c1 [Example 36, 6-((4-((2-chloro-4-methylphenoxy)methyl)piperdin-1-yl)carbonyl)-2H-1,4-benzoxazin-3(4H)-one]
inhibition at 10 µM: 104%

SMILES: O=C1COc2cc(F)c(C(=O)N3CC(COc4cccc(Oc5ccccc5)c4)C3)cc2N1 [Example 129, 7-fluoro-6-((3-((3-phenoxyphenoxy)methyl)azetidin-1-yl)carbonyl)-2H-1,4-benzoxazin-3(4H)-one]
inhibition at 10 µM: 99%

SMILES: N#Cc1cccc(OCC2CCN(C(=O)c3ccc4c(c3)NC(=O)CO4)CC2)c1 [Example 48, 3-((1-((3-oxo-3,4-dihydro-2H-1,4-benzoxazin-6-yl)carbonyl)piperidin-4-yl)methoxy)benzonitrile]
inhibition at 10 µM: 89%

SMILES: O=C1COc2cc(F)c(C(=O)N3CC(COc4cc(F)ccc4Cl)C3)cc2N1 [Example 132, 6-((3-((2-chloro-5-fluorophenoxy)methyl)azetidin-1-yl)carbonyl)-7-fluoro-2H-1,4-benzoxazin-3(4H)-one]
inhibition at 10 µM: 99%

SMILES: O=C1COc2cc(F)c(C(=O)N3CC(COc4ccc(Cl)c(F)c4)C3)cc2N1 [Example 130, 6-((3-((4-chloro-3-fluorophenoxy)methyl)azetidin-1-yl)carbonyl)-7-fluoro-2H-1,4-benzoxazin-3(4H)-one]
inhibition at 10 µM: 103%

SMILES: O=C1COc2cc(F)c(C(=O)N3CC(COc4ccc5scnc5c4)C3)cc2N1 [Example 104, 6-((3-((1,3-benzothiazol-5-yloxy)methyl)azetidin-1-yl)carbonyl)-7-fluoro-2H-1,4-benzoxazin-3(4H)-one]
inhibition at 10 µM: 100%

SMILES: C=C(C)c1ccc(OCC2CCN(C(=O)c3cc4c(cc3F)OCC(=O)N4)CC2)c(Cl)c1 [Example 82, 6-((4-((2-chloro-4-(prop-1-en-2-yl)phenoxy)methyl)piperidin-1-yl)carbonyl)-7-fluoro-2H-1,4-benzoxazin-3(4H)-one]
inhibition at 10 µM: 101%

SMILES: O=C1COc2cc(F)c(C(=O)N3CC(COc4ccc(Oc5ccccc5)cc4)C3)cc2N1 [Example 128, 7-fluoro-6-((3-((4-phenoxyphenoxy)methyl)azetidin-1-yl)carbonyl)-2H-1,4-benzoxazin-3(4H)-one]
inhibition at 10 µM: 93%

SMILES: O=C1COc2ncc(C(=O)N3CCC(COc4cccc(Cl)c4)CC3)cc2N1 [Example 13, 7-((4-((3-chlorophenoxy)methyl)piperidin-1-yl)carbonyl)-1H-pyrido[2,3-b][1,4]oxazin-2(3H)-one]
inhibition at 10 µM: 99%

Second part, the compound after the results:

inhibition at 10 µM: 101%
SMILES: N#Cc1ccccc1COC1CN(C(=O)c2cc3c(cc2F)OCC(=O)N3)C1 [Example 333, 2-(((1-((7-fluoro-3-oxo-3,4-dihydro-2H-1,4-benzoxazin-6-yl)carbonyl)azetidin-3-yl)oxy)methyl) benzonitrile]

inhibition at 10 µM: 100%
SMILES: Cc1cc(-c2ccc(OCC3CN(C(=O)c4cc5c(cc4F)OCC(=O)N5)C3)c(F)c2)n(C)n1 [Example 259, 6-((3-((4-(1,3-dimethyl-1H-pyrazol-5-yl)-2-fluorophenoxy)methyl)azetidin-1-yl)carbonyl)-7-fluoro-2H-1,4-benzoxazin-3(4H)-one]

inhibition at 10 µM: 98%
SMILES: O=C1COc2cc(F)c(C(=O)N3CC(COc4ccc(-c5cnn(C6CC6)c5)cc4F)C3)cc2N1 [Example 248, 6-((3-((4-(1-cyclopropyl-1H-pyrazol-4-yl)-2-fluorophenoxy)methyl)azetidin-1-yl)carbonyl)-7-fluoro-2H-1,4-benzoxazin-3(4H)-one]

inhibition at 10 µM: 100%
SMILES: Cc1cccc(COC2CN(C(=O)c3cc4c(cc3F)OCC(=O)N4)C2)c1 [Example 329, 7-fluoro-6-((3-((3-methylbenzyl)oxy)azetidin-1-yl)carbonyl)-2H-1,4-benzoxazin-3(4H)-one]

inhibition at 10 µM: 103%
SMILES: CC(C)c1ccc(OCC2CN(C(=O)c3cc4c(cc3F)OCC(=O)N4)C2)cc1 [Example 159, 7-fluoro-6-((3-((4-isopropylphenoxy)methyl)azetidin-1-yl)carbonyl)-2H-1,4-benzoxazin-3(4H)-one]

inhibition at 10 µM: 102%
SMILES: O=C1COc2cc(F)c(C(=O)N3CC(COc4ccc(Cl)cc4-c4ccc5c(c4)CCO5)C3)cc2N1 [Example 221, 6-((3-((4-chloro-2-(2,3-dihydro-1-benzofuran-5-yl)phenoxy)methyl)azetidin-1-yl)carbonyl)-7-fluoro-2H-1,4-benzoxazin-3(4H)-one]

inhibition at 10 µM: 100%
SMILES: O=C1COc2cc(F)c(C(=O)N3CC(COc4ccc(-c5ccncc5F)cc4F)C3)cc2N1 [Example 242, 7-fluoro-6-((3-((2-fluoro-4-(3-fluoropyridin-4-yl)phenoxy)methyl)azetidin-1-yl)carbonyl)-2H-1,4-benzoxazin-3(4H)-one]

inhibition at 10 µM: 101%
SMILES: O=C1COc2cc(F)c(C(=O)N3CC(OCc4cccc(Cl)c4)C3)cc2N1 [Example 336, 6-((3-((3-chlorobenzyl)oxy)azetidin-1-yl)carbonyl)-7-fluoro-2H-1,4-benzoxazin-3(4H)-one]

inhibition at 10 µM: 101%
SMILES: Cc1ccc(COC2CN(C(=O)c3cc4c(cc3F)OCC(=O)N4)C2)c(F)c1 [Example 350, 7-fluoro-6-((3-((2-fluoro-4-methylbenzyl)oxy)azetidin-1-yl)carbonyl)-2H-1,4-benzoxazin-3(4H)-one]

inhibition at 10 µM: 102%
SMILES: O=C1COc2cc(F)c(C(=O)N3CC(COC4CCCCC4)C3)cc2N1 [Example 280, 6-((3-((cyclohexyloxy)methyl)azetidin-1-yl)carbonyl)-7-fluoro-2H-1,4-benzoxazin-3(4H)-one]

inhibition at 10 µM: 101%
SMILES: O=C1COc2cc(F)c(C(=O)N3CC(OCc4ccc5c(c4)CCCC5)C3)cc2N1 [Example 346, 7-fluoro-6-((3-(5,6,7,8-tetrahydronaphthalen-2-ylmethoxy)azetidin-1-yl)carbonyl)-2H-1,4-benzoxazin-3(4H)-one]

inhibition at 10 µM: 100%
SMILES: O=C1COc2cc(F)c(C(=O)N3CC(COc4ccc(Cl)cc4Br)C3)cc2N1 [Example 185, 6-((3-((2-bromo-4-chlorophenoxy)methyl)azetidin-1-yl)carbonyl)-7-fluoro-2H-1,4-benzoxazin-3(4H)-one]

inhibition at 10 µM: 100%
SMILES: CC(C)(C)c1ccccc1OCC1CN(C(=O)c2cc3c(cc2F)OCC(=O)N3)C1 [Example 167, 6-((3-((2-tert-butylphenoxy)methyl)azetidin-1-yl)carbonyl)-7-fluoro-2H-1,4-benzoxazin-3(4H)-one]

inhibition at 10 µM: 104%
SMILES: Cc1cc(-c2cc(Cl)ccc2OCC2CN(C(=O)c3cc4c(cc3F)OCC(=O)N4)C2)nn1C [Example 217, 6-((3-((4-chloro-2-(1,5-dimethyl-1H-pyrazol-3-yl)phenoxy)methyl)azetidin-1-yl)carbonyl)-7-fluoro-2H-1,4-benzoxazin-3(4H)-one]

inhibition at 10 µM: 94%
SMILES: Cc1cc(OCC2CN(C(=O)c3cc4c(cc3F)OCC(=O)N4)C2)n(-c2ccccn2)n1 [Example 178, 7-fluoro-6-((3-(((3-methyl-1-(pyridin-2-yl)-1H-pyrazol-5-yl)oxy)methyl)azetidin-1-yl)carbonyl)-2H-1,4-benzoxazin-3(4H)-one]

% inhibition (10 μM) (10 µM): 100%
SMILES: CC(Oc1cc(F)ccc1F)C1CN(C(=O)c2cc3c(cc2F)OCC(=O)N3)C1 (centres unmarked) [Example 320, 6-((3-(1-(2,5-difluorophenoxy)ethyl)azetidin-1-yl)carbonyl)-7-fluoro-2H-1,4-benzoxazin-3(4H)-one]

inhibition at 10 µM: 102%
SMILES: CC(Oc1ccc(F)cc1Cl)C1CCN(C(=O)c2cc3c(cc2F)OCC(=O)N3)CC1 (centres unmarked) [Example 293, 6-((4-(1-(2-chloro-4-fluorophenoxy)ethyl)piperidin-1-yl)carbonyl)-7-fluoro-2H-1,4-benzoxazin-3(4H)-one]

Reference: patent US10106556B2, “Heterocyclic compound” (TAKEDA PHARMACEUTICAL COMPANY LIMITED, priority 2015, dated 2018)
